Data on 16 compounds can be found in ChEMBL document CHEMBL5356986, “Research status of indole-modified natural products” (RSC Med Chem, 2023).

In brackets after ≈: the same amount, converted by molar mass.

One experiment deals with Hep 3B2. The experiment can be described thus: Cytotoxicity against human Hep3B cells assessed as inhibition of cell growth by MTT assay. It is filed as functional, cell-based.
The target of the next experiment is Alpha glucosidase (Homo sapiens, UniProt O43451+P10253+P14410+Q2M2H8). The experiment in a line: Inhibition of Alpha-glucosidase (unknown origin) spectrophotometric analysis. The format is protein assay.
The subject of the next experiment is C-33-A. The experiment can be described thus: Antiproliferative activity against human C-33-A cells assessed as reduction in cell viability measured after 48 hrs by MTT assay. It is filed as functional, cell-based.
Another experiment deals with SiHa. The experiment in a line: Antiproliferative activity against human SiHa cells assessed as inhibition of cell growth by MTT assay. It is filed as functional, cell-based. (In general: Tetrazolium assays rely on reduction of a dye to a coloured formazan, in cell work by metabolically active cells.)
Experiment [1] is described as follows: Antiproliferative activity against human CaLo cells assessed as reduction in cell viability. It is filed as functional, cell-based.
The test system of experiment [2] is SMMC-7721. The experiment can be described thus: Cytotoxicity against human SMMC-7721 cells assessed as reduction in cell viability. The format is functional, cell-based.
The subject of experiment [3] is Mycobacterium tuberculosis. The experiment in a line: Antimycobacterial activity against Mycobacterium tuberculosis H37Rv assessed as reduction in bacterial cell growth. It is filed as functional.
The test system of a further experiment is HOP-92. The experiment in a line: Growth inhibition against human HOP-92 cells incubated for 48 hrs by sulforhodamine B assay. The format is functional. Background: The SRB assay estimates cell density from bound dye.
Experiment [4] relates to SMMC-7721. The experiment can be described thus: Antiproliferative activity against human SMMC-7721 cells assessed as reduction in cell growth by SRB assay. The format is functional, cell-based.
The test system of experiment [5] is MCF7. The experiment can be described thus: Antiproliferative activity against human MCF7 cells assessed as cell growth inhibition incubated for 6 days by SRB assay. It is filed as functional, cell-based. The conditions noted are these: MCF7, 144 h.
For the next experiment, the system named is SK-BR-3. The experiment can be described thus: Antiproliferative activity against human SK-BR-3 cells incubated for 72 hrs by MTT assay. The format is functional, cell-based. The conditions noted are these: SK-BR-3, 72 h.
A further experiment has as its system CAMA-1. The experiment can be described thus: Antiproliferative activity against human CAMA-1 cells assessed as cell growth inhibition. It is filed as functional, cell-based.
The subject of a further experiment is MDA-MB-453. The experiment can be described thus: Antiproliferative activity against human MDA-MB-453 cells assessed as reduction in cell growth after 72 hrs by MTT assay. The format is functional, cell-based. The conditions noted are these: MDA-MB-453, 72 h.
The test system of another experiment is MDA-MB-231. The experiment can be described thus: Antiproliferative activity against human MDA-MB-231 cells assessed as cell growth inhibition. The format is functional, cell-based.
For a further experiment, the system named is A549. The experiment in a line: Antiproliferative activity against human A549 cells assessed as cell growth inhibition measured after 72 hrs by MTT assay. It is filed as functional, cell-based. As to conditions: A549, 72 h.
A further experiment concerns Bel-7402. The experiment in a line: Cytotoxicity against human Bel-7402 cells measured after 72 hrs by MTT assay. The format is functional, cell-based. The conditions noted are these: Bel-7402, 72 h.
Another experiment concerns LoVo. The experiment can be described thus: Cytotoxicity against human LoVo cells incubated for 72 hrs by MTT assay. The format is functional, cell-based.
Experiment [6] has as its system HeLa. The experiment can be described thus: Cytotoxicity against human HeLa cells assessed as reduction in cell viability. The format is functional, cell-based.
Another experiment relates to PC-3. The experiment in a line: Cytotoxicity against human PC-3 cells assessed as reduction in cell viability. It is filed as functional, cell-based.
The test system of a further experiment is A2780. The experiment in a line: Antiproliferative activity against human A2780 cells assessed as inhibition of cell growth. The format is functional, cell-based.
Experiment [7] deals with MCF7. The experiment in a line: Antiproliferative activity against human MCF7 cells assessed as cell growth inhibition measured after 72 hrs by MTT assay. It is filed as functional, cell-based. As to conditions: MCF7, 72 h.
The subject of experiment [8] is HeLa. The experiment can be described thus: Antiproliferative activity against human HeLa cells assessed as reduction in cell growth measured after 48 hrs by MTT assay. The format is functional, cell-based.
Experiment [9] concerns SGC-7901. The experiment in a line: Antiproliferative activity against human SGC-7901 cells assessed as cell growth inhibition. It is filed as functional, cell-based.
Experiment [10] relates to MCF7. The experiment can be described thus: Antiproliferative activity against human MCF7 cells assessed as inhibition of cell growth incubated for 24 hrs by MTT assay. The format is functional, cell-based. The conditions noted are these: MCF7, 24 h.
Experiment [11] concerns SGC-7901. The experiment in a line: Cytotoxicity against human SGC-7901 cells assessed as reduction in cell viability measured after 48 hrs by MTT colorimetric assay. The format is functional, cell-based. As to conditions: SGC-7901, 48 h.
In experiment [12] the test system is HepG2. The experiment can be described thus: Cytotoxicity against human HepG2 cells assessed as reduction in cell viability measured after 48 hrs by MTT colorimetric based assay. It is filed as functional. As to conditions: HepG2, 48 h.
The test system of experiment [13] is HepG2. The experiment can be described thus: Cytotoxicity against human HepG2 cells assessed as cell growth inhibition. It is filed as functional, cell-based.
The subject of a further experiment is RD. The experiment in a line: Antiproliferative activity against human RD cells assessed as cell growth inhibition measured after 72 hrs by MTT assay. It is filed as functional, cell-based.
Experiment [14] relates to HepG2. The experiment can be described thus: Antiproliferative activity against human HepG2 cells assessed as inhibition of cell proliferation after 72 hrs by MTT assay. As to conditions: HepG2, 72 h. The format is functional, cell-based.
Another experiment has as its target Mu-type opioid receptor (Homo sapiens, UniProt P35372). The experiment can be described thus: Inhibition of mu opioid receptor (unknown origin).
For a further experiment, the system named is HCT-116. The experiment in a line: Antiproliferative activity against human HCT-116 cells assessed as inhibition of cell growth. It is filed as functional, cell-based.
A further experiment deals with Acetylcholinesterase (Homo sapiens, UniProt P22303). The experiment in a line: Inhibition of Acetylcholinesterase (unknown origin).
Experiment [15] concerns the target Prostaglandin G/H synthase 2 (Homo sapiens, UniProt P35354). The experiment can be described thus: Inhibition of COX-2 (unknown origin).

Mu-type opioid receptor, sequence (P35372 whole entry): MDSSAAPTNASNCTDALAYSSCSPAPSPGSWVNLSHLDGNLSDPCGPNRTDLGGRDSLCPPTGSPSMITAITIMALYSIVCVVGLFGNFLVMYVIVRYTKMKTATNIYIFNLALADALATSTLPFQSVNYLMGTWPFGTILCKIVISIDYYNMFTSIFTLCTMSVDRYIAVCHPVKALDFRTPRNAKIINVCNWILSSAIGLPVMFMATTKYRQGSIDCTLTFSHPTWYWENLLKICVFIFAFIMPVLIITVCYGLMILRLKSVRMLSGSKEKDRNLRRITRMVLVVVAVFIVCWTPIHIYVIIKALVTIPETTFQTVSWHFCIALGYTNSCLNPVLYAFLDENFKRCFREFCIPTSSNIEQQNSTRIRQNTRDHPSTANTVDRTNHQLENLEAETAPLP
Acetylcholinesterase, sequence (P22303 whole entry): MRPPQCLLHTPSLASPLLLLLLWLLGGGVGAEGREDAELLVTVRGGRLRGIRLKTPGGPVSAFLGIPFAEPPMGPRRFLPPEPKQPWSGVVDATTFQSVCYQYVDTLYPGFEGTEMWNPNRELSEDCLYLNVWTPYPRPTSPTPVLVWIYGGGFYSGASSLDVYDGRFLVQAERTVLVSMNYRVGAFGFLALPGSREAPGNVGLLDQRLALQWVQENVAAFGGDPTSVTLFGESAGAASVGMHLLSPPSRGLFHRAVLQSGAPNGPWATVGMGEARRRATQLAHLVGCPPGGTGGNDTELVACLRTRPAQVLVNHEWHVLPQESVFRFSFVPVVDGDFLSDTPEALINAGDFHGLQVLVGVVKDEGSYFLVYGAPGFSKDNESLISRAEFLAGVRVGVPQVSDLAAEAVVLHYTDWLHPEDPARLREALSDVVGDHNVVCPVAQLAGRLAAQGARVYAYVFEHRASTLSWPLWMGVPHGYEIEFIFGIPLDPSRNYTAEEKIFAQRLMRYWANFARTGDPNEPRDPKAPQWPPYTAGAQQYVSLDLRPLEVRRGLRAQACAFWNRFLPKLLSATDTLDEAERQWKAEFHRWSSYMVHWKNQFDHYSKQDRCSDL
Prostaglandin G/H synthase 2, sequence (P35354 whole entry): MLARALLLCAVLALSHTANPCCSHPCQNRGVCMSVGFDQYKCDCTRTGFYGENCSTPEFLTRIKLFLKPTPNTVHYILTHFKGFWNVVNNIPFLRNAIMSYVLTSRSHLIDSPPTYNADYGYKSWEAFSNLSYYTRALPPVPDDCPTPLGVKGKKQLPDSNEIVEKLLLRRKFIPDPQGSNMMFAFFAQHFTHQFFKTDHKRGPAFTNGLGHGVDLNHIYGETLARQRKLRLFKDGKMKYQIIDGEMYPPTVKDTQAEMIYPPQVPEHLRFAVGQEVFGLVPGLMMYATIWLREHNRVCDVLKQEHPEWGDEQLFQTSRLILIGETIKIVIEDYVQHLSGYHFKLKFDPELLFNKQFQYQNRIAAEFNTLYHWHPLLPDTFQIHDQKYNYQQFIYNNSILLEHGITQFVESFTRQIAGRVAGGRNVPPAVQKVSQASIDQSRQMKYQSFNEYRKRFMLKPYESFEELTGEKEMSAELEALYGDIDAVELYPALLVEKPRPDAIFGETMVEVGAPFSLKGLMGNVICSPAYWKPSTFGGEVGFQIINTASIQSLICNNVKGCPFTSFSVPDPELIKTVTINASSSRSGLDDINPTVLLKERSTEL

With `O=C(/C=C(O)/C=C/c1c[nH]c2ccccc12)/C=C/c1c[nH]c2ccccc12`, the IC50 (usually the concentration that gives 50% inhibition) in the experiment on Hep 3B2 was determined as 14000 nM.

Turning to `COc1ccc2c(CSC(=S)NCCc3c[nH]c4ccccc34)cc(=O)oc2c1`, the IC50 on Alpha glucosidase is 85000 nM.

As to `O=C1C(Cl)=C(NC(Cc2c[nH]c3ccccc23)C(=O)O)C(=O)c2ccccc21` (centres undefined), the results for the IC50 (with C-33-A; in the experiment with SiHa; in experiment [1]) were 3 nM, 3200 nM and 2690 nM, respectively.

Take `Cc1ccc2[nH]c3c(c2c1)C[C@]1(C)[C@H]2CC=C4[C@@H]5[C@@H](C)[C@H](C)CC[C@]5(C(=O)NCCCN(C)C)CC[C@@]4(C)[C@]2(C)CC[C@H]1C3(C)C`: the IC50 in the experiment on SMMC-7721 [2] stood at 1080 nM.

On to `O=C(c1ccncc1)n1nc(-c2c[nH]c3ccccc23)cc1-c1cc2ccccc2oc1=O`, for which, in experiment [3], the minimal inhibitory concentration (MIC) (usually the least concentration at which growth counts as inhibited) worked out at 2.02 µM (≈ 0.874 µg/mL).

For the compound `Cc1cc(=O)oc2c(C)c(O)c(-c3cc4ccc(F)cc4[nH]3)cc12`, the GI50 – broadly, the concentration at which growth is held to half of that of the control – in the experiment on HOP-92 came out at 950 nM. That is a sub-micromolar value.

With `CC[C@@]1(O)C(=O)OCc2c1cc1n(c2=O)Cc2cc3ccccc3nc2-1` [CAMPTOTHECIN], the half-maximal inhibitory concentration (IC50) in the experiment with SMMC-7721 [4] is 3950 nM; with MCF7 [5], under 10 nM; in the experiment on SK-BR-3, under 10 nM; in the experiment with CAMA-1 it was 70 nM; with MDA-MB-453, under 10 nM; in the experiment on MDA-MB-231, under 10 nM.

Turning to `COc1cc(C2CCCCc3c2ccc2c3ccn2C)cc(OC)c1OC` (centres undefined), the IC50 turned out to be 22 nM with A549; 39 nM in the experiment with Bel-7402; 49 nM in the experiment with LoVo; 56 nM in the experiment with HeLa [6]; 47 nM in the experiment with PC-3; 37 nM in the experiment with A2780. Besides, the half-maximal inhibitory concentration (IC50) in the experiment with MCF7 [7] is 51 nM.

For `O=C(c1cc2ccc(Cl)cc2n1Cc1cccc2ccccc12)N(CCO)[C@@H]1CC(=O)N2C[C@@H]3CCCN4CCC[C@@H]([C@H]34)[C@H]2C1`, the IC50 with HeLa [8] came to 900 nM; with SGC-7901 [9] it was 1100 nM; with MCF7 [10], 1200 nM.

As to `CC(C)COC(=O)[C@]12CC[C@@H](C)[C@H](C)[C@H]1C1=CC(=O)[C@@H]3[C@@]4(C)Cc5c([nH]c6ccc(Cl)cc56)C(C)(C)[C@@H]4CC[C@@]3(C)[C@]1(C)CC2`, the IC50 with SGC-7901 [11], in the experiment on HepG2 [12] and in the experiment on HepG2 [13] was 3120 nM each time.

Regarding `CC(=O)O[C@H]1C(=O)[C@@]2(C)[C@H]([C@H](OC(=O)c3ccccc3)[C@]3(O)C[C@H](OC(=O)[C@H](O)[C@@H](NC(=O)c4ccccc4)c4ccccc4)C(C)=C1C3(C)C)[C@]1(OC(C)=O)CO[C@@H]1C[C@@H]2O` [PACLITAXEL], the figures for the IC50 in the experiment with RD and with SGC-7901 [11] were over 10000 nM and 14400 nM, respectively.

For the compound `COc1cc(/C=N/NC(=O)c2cn(Cc3ccccc3)c3ccccc23)cc(OC)c1OC`, in the experiment on HepG2 [14], the IC50 is 0.63 nM.

With `O=C(N[C@@H]1CC[C@@]2(O)[C@H]3Cc4ccc(O)c5c4[C@@]2(CCN3CC2CC2)[C@H]1O5)c1cc2ccccc2[nH]1`, the midpoint of inhibition at Mu-type opioid receptor, the IC50, lay at 0.21 nM.

Regarding `COc1cc(C(=O)/C(C)=C/c2c[nH]c3cc(F)ccc23)cc(OC)c1OCCN`, the IC50 in the experiment on HCT-116 is 3.2 nM.

Compound `O=C1Cc2cc(OCc3ccc(F)cc3)ccc2C=C1C(=O)NCCc1c[nH]c2ccccc12` yielded an IC50 against Acetylcholinesterase of 160 nM.

On to `CC1=NN(c2ccccc2)C(=O)/C1=C\c1cn(CCCOc2cc(O)c3c(=O)cc(-c4ccccc4)oc3c2)c2ccccc12`, for which half-maximal inhibition in [15] (IC50) was put at 700 nM.
